# Measurements: patent US7763636B2, “N-(arylalkyl)-1H-pyrrolopyridine-2-carboxamide derivatives, preparation and therapeutic use thereof” (Sanofi-Aventis, priority 2005, dated 2010)
# Molecular target: T1, TRPV1 receptors (Mus musculus, UniProt Q704Y3)
# T1 construct: from tissue; host or cells: cornea of the living mouse (C fibres)
# Test: Test of mouse corneal irritation (capsaicin ocular instillation)
# Assay type: in vivo
# Settings: 1 mg/kg (po), pretreatment time t = 1 h, n = 10, 2 μl of 160 μM capsaicin in the eye, rubbing counted for 2 min
# Description: Test of Mouse Corneal Irritation
# The irritant nature of capsaicin is readily assessed on the cornea since this organ is one of the organs most densely innervated with C fibres. In this context, from preliminary experiments, the application of a very small amount of capsaicin (2 μl at a concentration of 160 μM) to the surface of the cornea of an animal leads to a certain number of stereotypical behavioral traits associated with irritation, which are easy to record. Among these, the following are noted: blinking of the eye, rubbing of the instilled eye with the ipsilateral front paw, rubbing of the face with both front paws, scratching of the ipsilateral face with the hind paw. […] Its aspect is moreover also normal. […]
# In practice, the test product is administered orally and, with a delay (pretreatment time: t) that depends on the pharmacokinetic data, the animal receives an ocular instillation of 2 μl of a 160 μM capsaicin solution prepared as indicated above. During a 2-minute observation following the instillation, the number of times the instilled eye is rubbed with the ipsilateral front paw is recorded.
# For a given animal, the percentage of protection is calculated as follows: P=100−((number of scratching actions observed/mean number of scratching actions for the group treated with the solvent)×100) […]
# T1 sequence (Q704Y3 whole entry): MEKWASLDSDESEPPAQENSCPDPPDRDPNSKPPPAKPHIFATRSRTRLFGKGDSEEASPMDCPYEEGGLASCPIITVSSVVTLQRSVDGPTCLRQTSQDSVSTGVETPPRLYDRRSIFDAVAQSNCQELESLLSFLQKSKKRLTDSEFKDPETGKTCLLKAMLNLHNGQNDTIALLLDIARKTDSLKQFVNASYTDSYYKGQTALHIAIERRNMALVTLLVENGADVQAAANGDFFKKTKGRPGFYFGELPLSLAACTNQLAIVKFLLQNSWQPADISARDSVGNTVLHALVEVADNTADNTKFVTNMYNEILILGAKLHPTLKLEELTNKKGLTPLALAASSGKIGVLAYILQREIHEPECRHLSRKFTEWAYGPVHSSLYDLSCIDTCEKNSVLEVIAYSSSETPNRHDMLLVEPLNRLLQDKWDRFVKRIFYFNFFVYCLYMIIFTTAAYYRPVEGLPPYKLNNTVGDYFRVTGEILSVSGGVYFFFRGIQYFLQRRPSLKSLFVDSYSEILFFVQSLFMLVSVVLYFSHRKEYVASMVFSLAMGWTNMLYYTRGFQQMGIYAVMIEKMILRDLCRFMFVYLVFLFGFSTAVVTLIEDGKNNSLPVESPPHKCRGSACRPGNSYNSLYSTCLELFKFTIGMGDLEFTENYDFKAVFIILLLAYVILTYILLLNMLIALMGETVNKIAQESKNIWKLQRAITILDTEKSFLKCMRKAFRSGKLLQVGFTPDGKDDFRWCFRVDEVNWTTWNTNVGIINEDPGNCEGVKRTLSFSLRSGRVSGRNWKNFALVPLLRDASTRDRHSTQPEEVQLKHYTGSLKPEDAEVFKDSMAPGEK
row,Compound,% P (percentage of protection)
1,"Cn1cnc2cc(NC(=O)c3cc4cc(F)cnc4n3Cc3cccc(F)c3)ccc21 [Compound 15, N-(1-methyl-1H-benzimidazol-5-yl)-5-fluoro-1-[(3-fluorophenyl)methyl]-1H-pyrrolo[2,3-b]pyridine-2-carboxamide]",50% - (1 h)

# System: not given
# Test: not given
# Settings: not given
row,Compound,melting point [°C]
1,Cn1ccc2cc(NC(=O)c3cc4ccncc4n3Cc3cccc(F)c3)ccc21,213 to 214.5
2,Cn1ccc2cc(NC(=O)c3cc4cc(C(F)(F)F)cnc4n3Cc3cccc(F)c3)ccc21,229 to 231
3,Cc1nc2cc(NC(=O)c3cc4cc(F)cnc4n3Cc3cccc(F)c3)ccc2n1C,226 to 228
4,Cc1nc2cc(NC(=O)c3cc4cccnc4n3-c3ccccc3)ccc2n1C,286 to 288
5,Cc1nc2cc(NC(=O)c3cc4cnccc4n3Cc3cccc(F)c3)ccc2n1C,263 to 264
6,Cn1cnc2cc(NC(=O)c3cc4ncccc4n3Cc3cccc(F)c3)ccc21,277 to 281
7,Cc1nc2cc(NC(=O)c3cc4ncccc4n3Cc3cccc(F)c3)ccc2s1,263 to 265
8,Cc1nc2cc(NC(=O)c3cc4ncccc4n3Cc3cccc(F)c3)ccc2n1C,245 to 247
9,Cc1nc2cc(NC(=O)c3cc4cc(Cl)ncc4n3Cc3cccc(F)c3)ccc2n1C,240 to 242
